Measured values from patent US8697441B2, “Method of inducing high activity of human adipose stem cell and medium therefor” (Seoul National University Hospital, priority 2009, dated 2014).

Tests used:
human adipose stem cells [1] = assay: Growth ability (BrdU assay); type: cell-based; conditions: FIG. 6b
Experimental: 1. Growth Ability (BrdU Assay) DNA polymerization occurring during cell growth was quantitated using BrdU. The same number of isolated human adipose stem cells (2×10^4 cells each) were cultured in a culture dish in α-MEM containing 10-100 μM glycerol and 10% FBS. […] In addition, the degree of DNA polymerization was evaluated by BrdU assay in order to further investigate the ability of cell growth and differentiation.

human adipose stem cells [2] = assay: Culturing of adipose stem cells in medium containing glycerol, cell counting; type: cell-based
Experimental: Through experiments to elucidate the mechanism of improved growth ability observed in coculturing with adipocytes, The present inventors have confirmed that the fat metabolite glycerol is one of the important factors and found out that the growth ability and differentiation efficiency can be enhanced only with glycerol, without adipocytes. […] […] […] In addition, the degree of DNA polymerization was evaluated by BrdU assay in order to further investigate the ability of cell growth and differentiation.

[3] = test system: human adipose stem cells cocultured with HUVECs; assay: Matrigel tube formation assay after coculturing with HUVECs; type: cell-based; conditions: FIG. 8; adipose stem cells exposed to glycerol vs not exposed
Experimental: 3. Tube Formation Assay Vascular tube formation ability was observed after coculturing the cells with human umbilical vein endothelial cells (HUVECs). Differentiation potency was evaluated by Matrigel tube formation assay, which is widely used to compare formation of capillary-like structures in vitro, after coculturing human adipose stem cells with HUVECs.

AKT = assay: Analysis of activation mechanism: degree of AKT activation (pAKT/tAKT); type: cell-based, human; conditions: FIG. 7; decreased again by inhibition of aquaporins (AQ1 and AQ9)
Experimental: Then, protein was extracted from the cells of each group and the degree of AKT activation, which is a measure of cell activity, was measured. […] The degree of AKT activation is evaluated from the ratio of phosphorylated AKT (pAKT) to total AKT (tAKT). The total AKT was normalized with β-actin which is normally expressed in cells.

With `OCC(O)CO` [glycerol] the “BrdU incorporation owing to cell division” value (human adipose stem cells [1]; with glycerol concentration) was “increased BrdU incorporation”, the “DNA synthesis (BrdU assay)” value (human adipose stem cells [1]; group G1) was “showed active DNA synthesis” and the “DNA synthesis (BrdU assay)” value (human adipose stem cells [1]; group G10 (10 μM glycerol)) was “showed active DNA synthesis”. For the same compound, the “most effective glycerol concentration” value (human adipose stem cells [2]; FIG. 6, cell number, BrdU, morphology) was 10 µM, the cell number (human adipose stem cells [2]; FIG. 6a, adipose stem cells cultured in medium containing glycerol, by glycerol concentration) was “increased in a glycerol concentration-dependent manner” and the “cell number versus control groups” value (human adipose stem cells [2]; G10 (10 μM glycerol), α-MEM with 10% FBS, 2×10^4 cells seeded, FIG. 6a) was “showed a cell number larger than those of the negative control group “control” and the positive control group “bFGF (4 ng/mL)””. The cytotoxicity (human adipose stem cells [2]; glycerol concentration 500 μM) was “cytotoxicity was observed”, the “vascular tube formation ability” value [3] was “increased vascular structures and densities” and the AKT activity (AKT) was “increased AKT activity”.
